For 3 compounds, IC50 results are on record in BindingDB's records for doi:10.1021/jm00121a046 (University of Kentucky, 1989).

Experiment [1] concerns the target Prostaglandin F2-alpha receptor (Sheep). Kind of experiment: Binding potency towards Prostaglandin F2 alpha receptor (competitive binding) with natural [3H]-PGF 2 alpha in ovine luteal cells (OLC).
Experiment [2] has the same target. Described as above. This is another data set of the same source.

The IC50 is the concentration that gives 50% inhibition. Low values mean greater potency, high ones weaker potency. With `[N-]=[N+]=Nc1ccc(CC[C@H](O)/C=C/[C@@H]2[C@@H](C/C=C\CCCC(=O)O)[C@@H](O)C[C@H]2O)cc1I`, the IC50 in experiment [1] was determined as 0.35 µM.

`[N-]=[N+]=Nc1cc(O)cc(OC[C@H](O)/C=C/[C@@H]2[C@@H](C/C=C\CCCC(=O)O)[C@@H](O)C[C@H]2O)c1`: the IC50 in experiment [2] came to 11 µM.

As for `[N-]=[N+]=Nc1ccc(CC[C@H](O)/C=C/[C@@H]2[C@@H](C/C=C\CCCC(=O)O)[C@@H](O)C[C@H]2O)c(O)c1`, the IC50 in experiment [2] was 6.1 µM.
